Measured values reported in ChEMBL document CHEMBL3526000 (Drug Metab Dispos, 2012).
Blank lines part the entries; values can stand above or below the molecule they belong to.

Tests used:
Format in all cases: ADME
[1] = target: T1, UDP-glucuronosyltransferase 2B7 (Homo sapiens, UniProt P16662); assay: Drug metabolism assessed as UGT2B7 activity in human liver microsome assessed as of O-glucuronidation at 25 to 200 uM incubated for 60 mins by LC-MS/MS analysis; details: microsomes, 1 h
T1 sequence (P16662 whole entry): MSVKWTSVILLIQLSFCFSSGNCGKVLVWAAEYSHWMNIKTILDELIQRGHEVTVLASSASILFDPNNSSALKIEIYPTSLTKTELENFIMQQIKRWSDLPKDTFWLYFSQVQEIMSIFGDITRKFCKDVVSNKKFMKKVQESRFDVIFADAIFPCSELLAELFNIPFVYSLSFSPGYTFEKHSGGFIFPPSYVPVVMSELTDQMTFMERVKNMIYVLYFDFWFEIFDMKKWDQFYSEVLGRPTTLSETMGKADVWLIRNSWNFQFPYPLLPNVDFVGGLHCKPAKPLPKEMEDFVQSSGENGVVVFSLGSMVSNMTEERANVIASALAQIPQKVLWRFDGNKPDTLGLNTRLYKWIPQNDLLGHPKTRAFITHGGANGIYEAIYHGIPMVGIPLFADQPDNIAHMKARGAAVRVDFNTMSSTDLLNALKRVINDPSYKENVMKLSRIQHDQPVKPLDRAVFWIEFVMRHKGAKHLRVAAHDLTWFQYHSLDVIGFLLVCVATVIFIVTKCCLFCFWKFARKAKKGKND

[2] = target: T2, UDP-glucuronosyltransferase 1A4 (Homo sapiens, UniProt P22310); assay: Drug metabolism assessed as UGT1A4 activity in human liver microsome assessed as of N-glucuronidation at 25 to 200 uM incubated for 60 mins by LC-MS/MS analysis; details: microsomes, 1 h
T2 sequence (P22310 whole entry): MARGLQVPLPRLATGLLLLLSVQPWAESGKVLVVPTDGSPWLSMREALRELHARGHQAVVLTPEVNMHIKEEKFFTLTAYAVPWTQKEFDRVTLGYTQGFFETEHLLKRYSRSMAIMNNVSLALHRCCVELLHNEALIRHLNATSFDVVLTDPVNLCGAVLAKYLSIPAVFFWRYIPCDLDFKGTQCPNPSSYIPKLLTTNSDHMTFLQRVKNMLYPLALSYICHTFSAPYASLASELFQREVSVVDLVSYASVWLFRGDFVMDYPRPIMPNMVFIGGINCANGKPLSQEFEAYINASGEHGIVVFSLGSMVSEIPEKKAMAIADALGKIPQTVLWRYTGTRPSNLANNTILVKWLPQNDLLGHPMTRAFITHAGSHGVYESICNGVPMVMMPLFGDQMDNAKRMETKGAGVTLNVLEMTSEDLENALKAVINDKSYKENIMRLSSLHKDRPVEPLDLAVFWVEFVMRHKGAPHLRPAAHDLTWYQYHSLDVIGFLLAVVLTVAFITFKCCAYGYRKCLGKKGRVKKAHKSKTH

Liver microsome = assay: Drug metabolism assessed as Sprague-Dawley rat liver microsomes assessed as compound formation treated with at 100 uM haloperidol by LC-MS/MS analysis

- Drug metabolism [1]: 0.14 nmol/min/mg
SMILES: Cc1cn([C@H]2C[C@H](N=[N+]=[N-])[C@@H](CO)O2)c(=O)[nH]c1=O [ZIDOVUDINE]

- Drug metabolism [2]: 0.26 nmol/min/mg
SMILES: CN1CCN(CCCN2c3ccccc3Sc3ccc(C(F)(F)F)cc32)CC1.Cl

- Drug metabolism (Liver microsome): metabolite_detected
SMILES: O=C(CCCN1CCC(O[C@@H]2O[C@H](C(=O)O)[C@@H](O)[C@H](O)[C@H]2O)(c2ccc(Cl)cc2)CC1)c1ccc(F)cc1
